Laboratory results published in patent US20090170880A1, “Methods and Means for the Treatment of Cancer” (priority 2007, published 2009).
Where two headings read alike, the source gives them in different places.

Assay: Brain penetration study, temozolomide i.v. in wild-type and knockout mice
Type: in vivo
Details: for AUC(0-t): 50 mg/kg, read-out: AUC0-7 h plasma
Method: Based on previous work by Kim et al (11) we have developed a high-performance liquid chromatographic assay for the determination for quantification of temozolomide in medium used for transwell experiments and in mouse plasma and brain tissue homogenates for in vivo pharmacokinetic studies. Separation/quantification was achieved using a Symmetry® C18 column (150×2.0 mm; ID) together with a mobile phase of 7.5% of methanol in 0.5% acetic acid in water, delivered at a flow rate of 0.2 ml/min and UV detection at 330 nm ((PDA996 photodiode array detector; Waters, Milford, Mass., USA or SF 757 detector; Kratos, Ramsey, N.J., USA). Medium from transwell experiments was 10-fold diluted with 0.2% acetic acid in water and 50 μl was injected directly into the HPLC system. Temozolomide was extracted from the acidified plasma and brain tissue homogenate samples (200 μl) with 1.0 ml ethyl acetate. The dried extracts were subsequently dissolved in 100 μl of 5% methanol in 0.2% acetic acid in water and 50 μl was injected into the HPLC system. External calibration was performed since no internal standard was available. The lower and upper limit of quantitation was 0.020 and 10.0 μg/ml, respectively. Samples above the upper limit of quantification were first diluted with acidified blank human plasma. All samples from in vivo studies were analyzed in duplicate in 2 independent analytical series and repeated once more when the results differed by more than 10%.
The brain penetration study comprised cohorts of animals receiving temozolomide (50 mg/kg) by intravenous injection in the tail vein. Each cohort consisted of at least 40 animals in which at least 6 animals were used per time point (t=15 min, 1, 2, 4 and 7 hours post temozolomide administration). […] The mice were anesthetized with metoxyflurane and blood samples were obtained by cardiac puncture and collected on ice in tubes containing potassium EDTA as anticoagulant. The tubes were placed in melting ice, centrifuged within 60 min (10 min, 5000 g, 4° C.) to separate the plasma fraction, which was transferred into clean vials, mixed with 1 M hydrochloric acid (10+1; v/v) and stored at −20° C. until analysis. Immediately after cardiac puncture the mice were killed by cervical dislocation and the brains were dissected and placed on ice. Within 60 min they were weighed and homogenized in 3 ml of ice-cold 1% of BSA in 0.05 M phosphate buffer adjusted to pH 2 and stored at −20° C. until further analysis.
Plasma and brain AUC0-7h values and standard errors were calculated by the linear trapezoidal rule using standard equations (14). The plasma half-life of temozolomide was calculated by linear regression analysis after log transformation of the concentration data using Microsoft Excel 2003. The brain-to-plasma ratio was calculated for each individual animal. The two-sided unpaired Student's t-test was used for statistical analysis of AUC values. Bonferroni's test for multiple comparisons was calculated using SPSS (v12.0.1; SPSS Inc, Chicago, Ill., USA) for brain and plasma levels and brain-to-plasma ratios determined at 2 h post temozolomide administration with the inhibitors and for analyzing the results of the in vivo efficacy study.

[1] = Bcrp1 knockout mice, i.v. 50 mg/kg
[2] = Bcrp, Mdr1ab knockout mice, i.v. 50 mg/kg
[3] = Mdr1ab knockout mice, i.v. 50 mg/kg

Cn1nnc2c(C(N)=O)ncn2c1=O [temozolomide, 8-carbamoyl-3-methyl-[3H]-imidazo[5,1-d]-1,2,3,5-tetrazin-4-one]
increase of brain penetration / accumulation relative to wild-type (Bcrp1/Mdr1ab knockout mice, i.v. 50 mg/kg): 50%
AUC0-7 h, brain [1]: 44.78 ± 1.88^1 μg/g · h
T½plasma [1]: 0.719 ± 0.017^ns h
AUC0-7 h, brain [2]: 56.46 ± 1.17^1,2,3 μg/g · h
T½plasma [2]: 0.705 ± 0.014^ns h
AUC(0-t) (FVB, mouse, plasma, iv, Bcrp1 knockout mice, i.v. 50 mg/kg): 63000 ± 2140 ng·h/mL
AUC(0-t) (FVB, mouse, plasma, iv, Bcrp, Mdr1ab knockout mice, i.v. 50 mg/kg): 64500 ± 1290 ng·h/mL
AUC(0-t) (FVB, mouse, plasma, iv, Mdr1ab knockout mice, i.v. 50 mg/kg): 62200 ± 2050 ng·h/mL
AUC(0-t) (FVB, mouse, plasma, iv, Wild-type mice, i.v. 50 mg/kg): 65400 ± 2000 ng·h/mL
half-life (FVB, mouse, plasma, iv, mice, i.v. 50 mg/kg, read-out: plasma half-life, first-order elimination (converted)): 42 min
AUC0-7 h, brain [3]: 44.51 ± 1.56^1 μg/g · h
T½plasma [3]: 0.757 ± 0.021^ns h
AUC0-7 h, brain (Wild-type mice, i.v. 50 mg/kg): 37.73 ± 1.11 µg·h/g
T½plasma (Wild-type mice, i.v. 50 mg/kg): 0.689 ± 0.019 h
enhancement of the brain penetration (absence of both P-gp and Bcrp1 versus wild-type): 1.5 fold
